Here are results for eleven compounds from patent US8956445B2, “High stability diionic liquid salts” (Sigma-Aldrich Co., priority 2004, dated 2015).

The nature of data set [1]: Refractive index (Abbe-3L refractometer). In kind it is physicochemical. The conditions noted are these: 23° C. The protocol:
(§1) The densities of the ionic liquids or, more correctly, […] (used synonymously except as indicated otherwise explicitly or by context) was determined at 23° C. by placing 2.0 mL of the ionic liquid in a 2.0 mL volumetric tube and weighing by difference. The melting points of the ionic liquids were determined using a Perkin Elmer Pyris 1 Differential Scanning calorimeter (Boston, Mass.). Typical methods involved using a 10° C./min temperature ramp to determine and identify the first and second order thermal transitions. […] For solid compounds, the melting points were verified using a capillary melting point apparatus. Refractive index measurements were conducted at 23° C. using a Bausch & Lomb Abbe-3L refractometer.

Data set [2] is described as follows: Density (2.0 mL volumetric tube, weighing by difference). The format is physicochemical. The conditions noted are these: 23° C. The protocol: as §1
Data set [3] in a line: Surface tension (DuNuoy Tensiometer). In kind it is physicochemical. The conditions noted are these: room temperature (23° C.).
For data set [4] the following is noted: values taken from reference 31, cited from earlier work.
The procedure of data set [5]: Thermal stabilities were measured by immobilizing an approximate 0.15-0.20 microns film of the ionic liquid on the inner wall of a fused silica capillary. The capillary was then heated slowly in an oven and a very sensitive flame ionization detector (or mass spectrometer) used to detect any volatilization or decomposition of the ionic liquid. There are several advantages of using this set-up to measure the thermal stabilities of ionic liquids. The thermal stability is measured in the absence of oxygen by purging the capillary with a continuous flow of an inert gas such as helium, hydrogen, or nitrogen. […] Finally, this approach can use mass spectrometry detection to determine the likely volatilization/decomposition products.
The source holds these as a separate data set.

Read-outs that look alike come from different tables or passages of the source.

With `F[P-](F)(F)(F)(F)F.F[P-](F)(F)(F)(F)F.c1ccc(Cn2cc[n+](CCCCCCCCCCCC[n+]3ccn(Cc4ccccc4)c3)c2)cc1` [C12(benzim)2-PF6, 1,12-di(3-benzylimidazolium)dodecane di-hexafluorophosphate], the “Miscibility with Heptane” value is recorded as “Immiscible” and the “Miscibility with Water” value is on record as “Immiscible”. For the same compound, the “Refractive Index” value in data set [1] was determined as 1.484. Moreover, the Density in data set [2] came to 1.27 g/mL. In data set [3], the “Surface Tension” value turned out to be 47.4 dynes/cm.
Take `CCCCn1cc[n+](C)c1.O=S(=O)([N-]S(=O)(=O)C(F)(F)F)C(F)(F)F` [BMIM—NTf2, 1-butyl-3-methylimidazolium bis[(trifluoromethylsulfonyl)imide]]: in data set [4] (40° C.), the “a (hydrogen bond basicity)” value was 2.02; the “b (hydrogen bond acidity)” value is given as 0.36; the “c (interaction parameter table, constant)” value was −2.87; the “l (dispersion forces)” value is 0.63. Besides, in data set [4] (40° C.), the “r (interaction via nonbonding and π-electrons)” value is 0; the “s (dipolarity/polarizability)” value was 1.89. Also, in data set [4] (70° C.), the “a (hydrogen bond basicity)” value is 1.75; the “b (hydrogen bond acidity)” value is reported as 0.38; the “c (interaction parameter table, constant)” value is given as −3.03; the “l (dispersion forces)” value was 0.56. In data set [4] (70° C.), the “r (interaction via nonbonding and π-electrons)” value is 0; the “s (dipolarity/polarizability)” value is listed as 1.67. Also, in data set [4] (100° C.), the “a (hydrogen bond basicity)” value is 1.55; the “b (hydrogen bond acidity)” value is 0.24; the “c (interaction parameter table, constant)” value is −3.13; the “l (dispersion forces)” value was 0.49. In addition, in data set [4] (100° C.), the “r (interaction via nonbonding and π-electrons)” value is recorded as 0; the “s (dipolarity/polarizability)” value is on record as 1.60. Further, in data set [5] (0.15-0.20 micron film in fused silica capillary, helium flow, FID, tested only up to 400° C.), the “thermal stability (volatilization/decomposition temperature)” value was 185 °C.
For `Cc1n(C)cc[n+]1CCCCCCCCC[n+]1ccn(C)c1C.O=S(=O)([N-]S(=O)(=O)C(F)(F)F)C(F)(F)F.O=S(=O)([N-]S(=O)(=O)C(F)(F)F)C(F)(F)F` [C9(m2im)2-NTf2, 1,9-di(2,3-dimethylimidazolium)nonane di-bis[(trifluoromethyl)sulfonyl]imidate], the “Miscibility with Heptane” value was “Immiscible” and the “Miscibility with Water” value is given as “Immiscible”. For the same compound, the “Refractive Index” value in data set [1] was 1.448. This compound gave a Density in data set [2] of 1.47 g/mL. Further, in data set [3], the “Surface Tension” value came to 43.5 dynes/cm.
With `Cn1cc[n+](CCCCCC[n+]2ccn(C)c2)c1.O=S(=O)([N-]S(=O)(=O)C(F)(F)F)C(F)(F)F.O=S(=O)([N-]S(=O)(=O)C(F)(F)F)C(F)(F)F` [C6(mim)2-NTf2, 1,6-di(3-methylimidazolium)hexane di-bis[(trifluoromethyl)sulfonyl]imida], the “Miscibility with Heptane” value was “Immiscible” and the “Miscibility with Water” value is reported as “Immiscible”. Moreover, the “Refractive Index” value in data set [1] came to 1.441. Further, the Density in data set [2] came to 1.52 g/mL. For the same compound, in data set [3], the “Surface Tension” value came out at 44.2 dynes/cm.
`CCCCn1cc[n+](CCCCCCCCC[n+]2ccn(CCCC)c2)c1.F[B-](F)(F)F.F[B-](F)(F)F` [C9(bim)2-BF4, 1,9-di(3-butylimidazolium)nonane di-tetrafluoroborate]: the “Miscibility with Heptane” value was “Immiscible” and the “Miscibility with Water” value is recorded as “Partially”. Moreover, for the setting “listed as 19”, the “Miscibility with Water” value is listed as “solubility of the salt in water decreases”. Further, in data set [1], the “Refractive Index” value was 1.503. In data set [2], this compound displayed a Density of 1.20 g/mL. For the same compound, in data set [3], the “Surface Tension” value came out at 50.4 dynes/cm.
As to `CCCCn1cc[n+](CCCCCCCCC[n+]2ccn(CCCC)c2)c1.F[P-](F)(F)(F)(F)F.F[P-](F)(F)(F)(F)F` [C9(bim)2-PF6, 1,9-di(3-butylimidazolium)nonane di-hexafluorophosphate], the “Miscibility with Heptane” value is “Immiscible” and the “Miscibility with Water” value is listed as “Immiscible”. In addition, in data set [1], the “Refractive Index” value amounted to 1.439. The same compound came in with a Density in data set [2] of 1.30 g/mL. Besides, in data set [3], the “Surface Tension” value worked out at 48.0 dynes/cm.
For `Cc1n(C)cc[n+]1CCCCCCCCC[n+]1ccn(C)c1C.F[B-](F)(F)F.F[B-](F)(F)F` [C9(m2im)2-BF4, 1,9-di(2,3-dimethylimidazolium)nonane di-tetrafluoroborate], the “Miscibility with Heptane” value was “Immiscible” and the “Miscibility with Water” value was “Miscible”. Moreover, in data set [1], the “Refractive Index” value stood at 1.456. In data set [2], this compound displayed a Density of 1.31 g/mL. In data set [3], the “Surface Tension” value is reported as 58.1 dynes/cm.
In the case of `CCCC[N+]1(CCCCCCCCC[N+]2(CCCC)CCCC2)CCCC1.O=S(=O)([N-]S(=O)(=O)C(F)(F)F)C(F)(F)F.O=S(=O)([N-]S(=O)(=O)C(F)(F)F)C(F)(F)F` [C9(bpy)2-NTf2, 1,9-di(butylpyrrolidinium)nonane di-bis[(trifluoromethyl)sulfonyl]imida], the “Miscibility with Heptane” value was “Immiscible” and the “Miscibility with Water” value is listed as “Immiscible”. For the same compound, the “thermal stability (volatilization/decomposition temperature)” value in data set [5] worked out at 330 °C.
Turning to `Cn1cc[n+](CCCCCCCCCCCC[n+]2ccn(C)c2)c1.F[B-](F)(F)F.F[B-](F)(F)F` [C12(mim)2-BF4, 1,12-di(3-methylimidazolium)dodecane di-tetrafluoroborate], the “Miscibility with Heptane” value is reported as “Immiscible” and the “Miscibility with Water” value is on record as “Partially”. The “Miscibility with Water” value (listed as 15) was “solubility of the salt in water decreases”. The “Refractive Index” value in data set [1] stood at 1.503. For the same compound, the Density in data set [2] stood at 1.26 g/mL. Further, the “Surface Tension” value in data set [3] came to 55.8 dynes/cm.
Take `Cn1cc[n+](CCCCCCCCC[n+]2ccn(C)c2)c1.F[B-](F)(F)F.F[B-](F)(F)F` [C9(mim)2-BF4, 1,9-di(3-methylimidazolium)nonane di-tetrafluoroborate]: the “Miscibility with Heptane” value is listed as “Immiscible” and the “Miscibility with Water” value is “Miscible”. In addition, the “Refractive Index” value in data set [1] was 1.469. In data set [2], this compound yielded a Density of 1.33 g/mL. In data set [3], the “Surface Tension” value came out at 61.2 dynes/cm.
Regarding `Cn1cc[n+](CCC[n+]2ccn(C)c2)c1.O=S(=O)([N-]S(=O)(=O)C(F)(F)F)C(F)(F)F.O=S(=O)([N-]S(=O)(=O)C(F)(F)F)C(F)(F)F` [C3(mim)2-NTf2, 1,3-di(3-methylimidazolium)propane di-bis[(trifluoromethyl)sulfonyl]imidate], the “Miscibility with Heptane” value is “Immiscible” and the “Miscibility with Water” value was “Immiscible”. For the same compound, the “Refractive Index” value in data set [1] is 1.440. Besides, the Density in data set [2] was found to be 1.61 g/mL. Besides, in data set [3], the “Surface Tension” value is on record as 44.7 dynes/cm.
